Data from patent US20200360331A1, “COMPOSITIONS COMPRISING 15-HEPE AND/OR 15-HETrE AND METHODS OF TREATING OR PREVENTING CARDIOMETABOLIC DISEASE, METABOLIC SYNDROME, AND/OR RELATED DISEASES” (Afimmune Limited, priority 2019, published 2020).
“Also recorded” adds a separate entry of the source.

Legend:
[1] = test system: TGF-β; experiment: UUO study: quantitative RT-PCR of kidney, TGF-β; type: in vivo, C57BL/6 mice; conditions: UUO mice kidney
Protocol: (§1) Quantitative RT-PCR: Total ribonucleic acid (RNA) was extracted from kidney samples using RNAiso (Takara Bio, Japan) according to the manufacturer's instructions. One μg of RNA was reverse-transcribed using a reaction mixture containing 4.4 micromolar (mM) of magnesium chloride (MgCl2) (F. Hoffmann-La Roche, Switzerland), 40 U RNase inhibitor (Toyobo, Japan), 0.5 mM dNTP (Promega, USA), 6.28 μM random hexamer (Promega), 5× first strand buffer (Promega), 10 mM dithiothreitol (Invitrogen, USA) and 200 U MMLV-RT (Invitrogen) in a final volume of 20 μL. The reaction was carried out for 1 hour at 37° C., followed by 5 minutes at 99° C. Real-time PCR was performed using real-time PCR DICE and TB Green™ Premix Ex Taq™ II (Takara Bio). To calculate the relative microRNA (mRNA) expression level, the expression of each gene (e.g., α-SMA, TIMP-1, TGF-β and Collagen Type 1) was normalized to that of reference gene 36B4 (gene symbol: Rplp0). Information regarding the PCR-primer sets and the plate layout are described in Tables 1 and 2.

[2] = test system: TGF-β induced epithelial mesenchymal transition (EMT) protein production; experiment: TGF-β induced EMT protein production in HepG2 cells; type: cell-based, human; conditions: increasing doses for 1 hour, then 200 pM TGF-β for 48 hours, listed as 15-HEPE
Protocol: The effects of 15-HEPE on TGF-β-induced signaling and cellular responses were determined. To test the effect of 15-HEPE on TGF-β-induced signaling, the activities of 15-HEPE to regulate TGF-β-stimulated Smad2 phosphorylation and nuclear translocation, both of which are key signaling events leading to TGF-β-induced cellular responses, were tested. One important biological activity of TGF-β is transcriptional activation of genes responsible for epithelial-mesenchymal transition (EMT), which is a crucial event in wound healing, tissue fibrosis, and cancer progression. The effect of 15-HEPE on TGFβ-induced epithelial mesenchymal transition related proteins (such as fibronectin, PAI-1, and N-cadherin etc.) expression in HepG2 and […] cells were assessed. HepG2 cells (human hepatoma cell line) were treated in increasing doses of 15-HEPE stage II in DMEM containing 0.1% of FBS for 1 hour and continually stimulated with or without 200 picomolar (pM) of TGF-β for 48 hours.
HepG2 cells (human hepatoma cell line) were treated in increasing doses of 15-HEPE stage II in DMEM containing 0.1% of FBS for 1 hour and continually stimulated with or without 200 picomolar (pM) of TGF-β for 48 hours. The two panels shown in FIG. 18A are two separate experiments run under the same experimental conditions.

[3] = UUO study: body weight, kidney weight, general condition; type: in vivo; conditions: UUO mice
Protocol: UUO Surgery: On day 0 of the study, UUO surgery was performed on mice under pentobarbital sodium anesthesia. The mouse's hair was first shaved and then abdomen cut open to exteriorize the mouse's left ureter. The ureter was ligated 4-0 nylon sutures at two points. The mouse's peritoneum and skin were then closed with sutures, and the mouse transferred to a clean cage until recovered from the anesthesia. Sham operated mice had their left ureter exposed but not ligated. […]
Animals: Seven-week-old female C57BL/6 mice (i.e., animals) were obtained from Japan SLC, Inc. (Japan) and were housed and fed with a normal diet (CE-2; CLEA Japan, Japan) under controlled conditions. The animals were maintained in a specific-pathogen free (SPF) facility under controlled conditions of temperature (e.g., 23±2° C.), humidity (e.g., 45±10%), lighting (e.g., 12-hour artificial light and dark cycles; light from 8:00 to 20:00) and air exchange. A high pressure was maintained in the experimental room to prevent contamination of the facility. The animals were housed in TPX cages (CLEA Japan) with a maximum of 4 mice per cage. Sterilized Paper-Clean (Japan SLC) was used for bedding and replaced once a week. Sterilized solid normal diet was provided ad libitum, being placed in a metal lid on the top of the cage. Pure water was also provided ad libitum from a water bottle equipped with a rubber stopper and a sipper tube. Water bottles were replaced once a week, cleaned, and sterilized in an autoclave and reused. Mice were identified by ear punch and each cage was labeled with a specific identification code.
Animal Monitoring and Sacrifice: The viability, clinical signs and behavior for the mice were monitored daily. Individual body weight was measured daily before treatment during the treatment period. […] The animals were sacrificed by exsanguination through direct cardiac puncture under isoflurane anesthesia (Pfizer Inc.) at Day 14.

[4] = test system: Alpha-SMA; experiment: BDL study: quantitative RT-PCR of liver, Alpha-SMA; type: in vivo, C57BL/6J mice; conditions: BDL mice liver
Protocol: as §1, with “from liver” for “from kidney”, “4.4 mM” for “4.4 micromolar (mM) of”, “relative mRNA” for “relative microRNA (mRNA)”, “gene (α-SMA,” for “gene (e.g., α-SMA,”, “Tables 8” for “Tables 1”, “and 9.” for “and 2.”

[5] = relative mRNA normalized to 36B4, 50 mg/kg PO QD Day 0-13
[6] = relative mRNA normalized to 36B4, 500 mg/kg PO QD Day 0-13
[7] = 50 mg/kg PO QD Day 0-13, Day 14
[8] = 500 mg/kg PO QD Day 0-13, Day 14

Structure (SMILES): CC/C=C\CC(O)/C=C/C=C\C/C=C\C/C=C\CCCC(=O)O (stereo not drawn) [DS102, 15-hydroxy-eicosa-5Z,8Z,11Z,13E,17Z-pentaenoic acid]
- TGF-β gene expression [1, 5]: 4.31 ± 0.69
- TGF-β gene expression [1, 6]: 5.37 ± 0.76
- TGF-β induced EMT (pro-fibrotic) protein production [2]: blocks TGF-β induced EMT protein production; also recorded: blocked TGF-β induced pro-fibrotic protein production
- Left Kidney Weight [3, 7]: 469 ± 60 mg
- Right Kidney Weight [3, 7]: 133 ± 10 mg
- Left Kidney Weight [3, 8]: 487 ± 108 mg
- Right Kidney Weight [3, 8]: 136 ± 6 mg
- α-SMA mRNA expression level compared with the Vehicle group ([4]; 500 mg/kg): tended to decrease; also recorded: trend approaching significance
- α-SMA mRNA expression level vs Vehicle group ([4]; DS102 treatment groups): no significant differences
- Alpha-SMA gene expression [4, 5]: 3.21 ± 1.67
- Alpha-SMA gene expression ([4]; relative mRNA normalized to 36B4, 250 mg/kg PO QD Day 0-13): 2.66 ± 1.33
- Alpha-SMA gene expression [4, 6]: 1.42 ± 0.75
